Test results as given in US6451781B1, “Substituted acylguanidines, process for their preparation, their use as medicaments or diagnostics, and medicaments comprising them” (Aventis Pharma Deutschland GmbH, priority 1999, dated 2002).

Legend:
[1] = target: T1, human Na+/H+ exchanger (subtype 3; NHE-3) (Homo sapiens, UniProt P48764); assay: Inhibition of the NHE antiport subtype 3: intracellular pH recovery after acid load (BCECF) in stably transfected LAP1 cells; type: cell-based; conditions: human NHE-3, pH recovery in % of maximum recovery, read-out: Residual activity at 30 μM
T1 construct: expressed in transfected cells; host or cells: LAP1 cells (NHE-deficient), stably transfected with pMAMneo plasmid
T1 sequence (P48764 26-834): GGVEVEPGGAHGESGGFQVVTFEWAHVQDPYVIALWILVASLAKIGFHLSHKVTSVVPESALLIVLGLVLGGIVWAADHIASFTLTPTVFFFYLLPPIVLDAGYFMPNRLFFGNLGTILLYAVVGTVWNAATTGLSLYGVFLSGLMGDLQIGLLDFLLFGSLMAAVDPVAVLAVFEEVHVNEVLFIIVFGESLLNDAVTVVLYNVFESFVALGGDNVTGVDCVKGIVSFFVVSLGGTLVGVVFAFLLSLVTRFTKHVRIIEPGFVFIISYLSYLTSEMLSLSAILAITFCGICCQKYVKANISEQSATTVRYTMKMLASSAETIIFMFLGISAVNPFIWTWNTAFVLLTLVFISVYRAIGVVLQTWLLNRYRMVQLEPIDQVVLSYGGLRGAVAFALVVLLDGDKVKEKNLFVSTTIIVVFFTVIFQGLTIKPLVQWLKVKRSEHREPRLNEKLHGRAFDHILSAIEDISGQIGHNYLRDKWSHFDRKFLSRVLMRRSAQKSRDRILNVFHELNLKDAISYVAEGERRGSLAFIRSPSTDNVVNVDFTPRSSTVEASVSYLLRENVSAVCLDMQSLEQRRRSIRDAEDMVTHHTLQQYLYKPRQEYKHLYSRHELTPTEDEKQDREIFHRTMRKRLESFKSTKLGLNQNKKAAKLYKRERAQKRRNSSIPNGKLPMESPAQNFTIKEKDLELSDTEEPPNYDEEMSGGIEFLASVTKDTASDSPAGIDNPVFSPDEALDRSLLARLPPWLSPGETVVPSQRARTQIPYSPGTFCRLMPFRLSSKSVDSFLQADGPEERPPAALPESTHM
Procedure: The absorption of water from the gall bladder is inhibited by inhibition of the apical NHE antiport of the subtype 3 of the gall bladder epithelium, which results in a dilute bile fluid. This dilute bile fluid prevents gallstone formation and, if gallstones are already present, brings about their dissolution. The inhibition of the NHE antiport of the subtype 3 by the compounds of the formula I according to the invention was determined by means of the following test.
Most of the molecular bilology techniques follow protocols from the works “Current Protocols in Molecular Biology (eds. Ausubel, F. M., Brent, R., Kingston, R. E., Moore, D. D., Seidman, J. G., Smith, J. A. and Struhl, K.; John Wiley & Sons)” and “Molecular Cloning: A Laboratory Manual (Sambrock, J., Fritsch, E. F. und Maniatis, T.; Cold Spring Harbor Laboratory Press (1989))”. […] In this test, the increase in the intracellular pH (pHi) after an acidification was determined which commenced with functional NHE even under bicarbonate-free conditions. For this, the pHi was determined using the pH-sensitive fluorescent dye BCECF (Calbiochem, the precursor BCECF-AM is employed). […] The BCECF fluorescence was determined in a “ratio fluorescence spectrometer” (Photon Technology International, South Brunswick, N.J., USA) at excitation wavelengths of 505 and 440 nm and an emission wavelength of 535 nm and converted into the pHi by means of calibration curves. […]

SMILES	remaining activity at 30 µM [1]	melting point
C/C(=C\c1cc(F)c(Oc2ccc(CC(=O)NCCO[C@H]3CC[C@@]4(C)[C@@H](C3)C[C@@H](O)[C@@H]3[C@@H]4C[C@H](O)[C@]4(C)[C@@H]([C@H](C)CCC(=O)O)CC[C@@H]34)cc2)c(F)c1)C(=O)N=C(N)N (stereo in doubt) [Example 1, 4-{3-[2-(2-{4-[2,6-Difluoro-4-(3-guanidino-2-methyl-3-oxopropenyl)phenoxy]phenyl}acetylamino)ethoxy]-7,12-dihydroxy-10,13-dimethylhexadecahydro-cyclopenta[a]phenanthren-17-yl}pentanoic acid]	17%	–
C/C(=C\C(=O)N=C(N)N)c1cc(F)c(Oc2ccc(CC(=O)N[C@H]3CC[C@@]4(C)[C@@H](C3)C[C@@H](O)[C@@H]3[C@@H]4C[C@H](O)[C@]4(C)[C@@H]([C@H](C)CCC(=O)O)CC[C@@H]34)cc2)c(F)c1 (stereo in doubt) [Example 2, 4-[3-(2-{4-[2,6-Difluoro-4-(3-guanidino-1-methyl-3-oxopropenyl)phenoxy]phenyl}acetylamino)-7,12-dihydroxy-10,13-dimethylhexadecahydrocyclopenta[a]phenanthren-17-yl]pentanoic acid]	10%	190 °C (dec.)
C[C@H](CCC(=O)O)[C@H]1CC[C@H]2[C@@H]3[C@H](O)C[C@@H]4C[C@@H](OCCNC(=O)c5cccc(-c6ccc(C(=O)N=C(N)N)cc6)c5)CC[C@]4(C)[C@H]3C[C@H](O)[C@]12C (stereo in doubt) [Example 3, 4-(3-{2-[(4′-Guanidinocarbonylbiphenyl-3-carbonyl)amino]ethoxy}-7,12-dihydroxy-10,13-dimethylhexadecahydrocyclopenta[a]phenanthren-17-yl)pentanoic acid]	65%	–
